Laboratory results published in publication PMC6264176, “Cholesterol-Lowering Activity of the Major Polyphenols in Grape Seed” (Molecules, 2011).

Each compound was assayed against T1, pancreatic cholesterol esterase (Sus scrofa, UniProt A0A286ZKB1) (assay: p-NPB hydrolysis by porcine pancreatic cholesterol esterase, absorbance at […] nm, with taurocholic acid).
T1 construct: gene CEL
T1 sequence (A0A286ZKB1 96-682): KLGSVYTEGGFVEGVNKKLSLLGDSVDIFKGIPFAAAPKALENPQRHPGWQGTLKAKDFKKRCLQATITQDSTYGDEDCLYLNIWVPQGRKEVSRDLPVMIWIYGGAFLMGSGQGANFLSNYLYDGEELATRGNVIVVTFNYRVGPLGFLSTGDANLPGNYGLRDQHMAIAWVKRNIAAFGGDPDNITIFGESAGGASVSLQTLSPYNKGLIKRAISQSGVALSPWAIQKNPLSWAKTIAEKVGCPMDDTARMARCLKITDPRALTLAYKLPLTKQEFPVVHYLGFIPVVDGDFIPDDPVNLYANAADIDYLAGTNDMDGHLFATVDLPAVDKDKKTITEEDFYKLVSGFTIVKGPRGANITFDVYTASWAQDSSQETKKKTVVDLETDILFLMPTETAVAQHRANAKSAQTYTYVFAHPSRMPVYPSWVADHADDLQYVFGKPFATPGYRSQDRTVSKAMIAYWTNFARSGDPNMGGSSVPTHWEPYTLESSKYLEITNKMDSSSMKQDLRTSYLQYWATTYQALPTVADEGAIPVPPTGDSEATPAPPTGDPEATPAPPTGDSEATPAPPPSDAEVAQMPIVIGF
Format: biochemical

Oc1cc(O)c2c(c1)OC(c1ccc(O)c(O)c1)C(O)C2 (single isomer, unassigned; (+)) [(+)-Catechin] and Oc1cc(O)c2c(c1)O[C@H](c1ccc(O)c(O)c1)[C@H](O)C2 [(–)-epicatechin] cannot be ordered by IC50: greater than 345 µM for the first, greater than 345 µM for the second.

O=C(O)c1cc(O)c(O)c(O)c1 [gallic acid] gave an IC50 greater than 588 µM.
